Laboratory results as given in US20240374730A1, “PHOTOACTIVATABLE PRODRUG NANOPARTICLES FOR COMBINED ANTI-ANGIOGENESIS AND PHOTODYNAMIC THERAPY” (The University of Hong Kong, priority 2021, published 2024).

Assays:
[1] = tested on: VEGF-stimulated human umbilical vein endothelial cells (HUVECs); assay: MTT cell viability of VEGF-stimulated HUVECs (dasatinib vs Di-DAS); format: cell-based; conditions: HUVEC, 20 ng/mL VEGF165, 48 h, read-out: 50% inhibition concentration (IC50)
Method: . Cells were incubated with 20 ng/mL VEGF165 and co-treated with dasatinib or Di-DAS at various concentrations for 48 h. FIG. 4B VEGF-stimulated HUVEC tube formation assay of Di-DAS-VER. […] FIG. 4C Quantitative HUVEC cell viability of Di-DAS-VER by MTT assay. […] MTT assay was performed at 24 h after treatment. […] . DAS: dasatinib; VER: verteporfin.
We tested the in vitro anti-angiogenic activity of DAS and Di-DAS in VEGF-stimulated human umbilical vein endothelial cells (HUVECs). […] . To assess therapeutic efficacy of combined anti-VEGF and PDT treatment, thiazolyl blue tetrazolium bromide (MTT) assay was conducted for measuring VEGF-stimulated HUVEC cell viability.

[2] = tested on: VEGF-stimulated HUVECs; assay: HUVEC scratch-wound healing assay; conditions: DAS group, irradiation not stated, 20 h
[3] = tested on: VEGF-induced HUVEC tube formation; assay: VEGF-induced HUVEC tube formation assay; format: cell-based, human; conditions: DAS equivalent dose 0.05 μM, 20 ng/mL VEGF165, 4 h

## Cc1nc(Nc2ncc(C(=O)Nc3c(C)cccc3Cl)s2)cc(N2CCN(CCO)CC2)n1 [DAS, dasatinib]
[1]
  IC50: 910 nM
[2]
  scratch wound recovery: 11.35%

## verteporfin
[3]
  inhibition of VEGF-induced HUVEC differentiation and formation of vessel-like tubes: could not inhibit
